pIC50: −log10 of the molar value. Read-outs that look alike come from different tables or passages of the source.
What was measured:
GSK3α = GSK3α (Homo sapiens (Human), UniProt P49840); assay: GSK 3α enzyme inhibition (FRET, Z-LYTE; Method 2); type: biochemical
Description: The enzyme inhibitory activities of compounds disclosed herein are determined by FRET using synthetic peptides labelled with both donor and acceptor fluorophores (Z-LYTE, Invitrogen Ltd., Paisley, UK).
The inhibitory activities of compounds of the invention against the GSK 3α enzyme isoform (Invitrogen), are evaluated by determining the level of activation/phosphorylation of the target peptide. The GSK3-α protein (500 ng/mL, 2.5 μL) is mixed with the test compound (2.5 μL at either 4 μg/mL, 0.4 μg/mL, 0.04 μg/mL, or 0.004 μg/mL) for 2 hr at RT. The FRET peptide (8 μM, 2.5 μL), which is a phosphorylation target for GSK3α, and ATP (40 μM, 2.5 μL) are then added to the enzyme/compound mixture and the resulting mixture incubated for 1 hr. Development reagent (protease, 5 μL) is added for 1 hr prior to detection in a fluorescence microplate reader (Varioskan® Flash, ThermoFisher Scientific).
In all cases, the site-specific protease cleaves non-phosphorylated peptide only and eliminates the FRET signal. Phosphorylation levels of each reaction are calculated using the ratio of coumarin emission (donor) over fluorescein emission (acceptor), for which high ratios indicate high phosphorylation and low ratios indicate low phosphorylation levels. The percentage inhibition of each reaction is calculated relative to non-inhibited control and the 50% inhibitory concentration (IC50 value) is then calculated from the concentration-response curve.
This method follows the same steps as Method 1 above, but utilises a shorter period of mixing of the test compound (105 minutes instead of 2 hours) with the GSK3-α protein.

PBMCs = assay: LPS-induced TNFα/IL-8 release in PBMC cells; type: cell-based; settings: Homo sapiens, LPS-stimulated PBMCs
Description: Peripheral blood mononuclear cells (PBMCs) from healthy subjects are separated from whole blood using a density gradient (Lymphoprep, Axis-Shield Healthcare). The PBMCs are seeded in 96 well plates and treated with compounds at the desired concentration for 2 hours before addition of 1 ng/mL LPS (Escherichia Coli 0111:B4 from Sigma Aldrich) for 24 hours under normal tissue culture conditions (37° C., 5% CO2). The supernatant is harvested for determination of IL-8 and TNFα concentrations by sandwich ELISA (Duo-set, R&D systems) and read on the fluorescence microplate reader (Varioskan® Flash, ThermoFisher Scientific). The concentration at 50% inhibition (IC50) of IL-8 and TNFα production is calculated from the dose response curve.

[1] = IL-8, read-out: IC50 Values for Inhibition of Cytokine Release, PBMCs IL-8
[2] = TNFα, read-out: IC50 Values for Inhibition of Cytokine Release, PBMCs TNFα

GSK3α, sequence (P49840 whole entry): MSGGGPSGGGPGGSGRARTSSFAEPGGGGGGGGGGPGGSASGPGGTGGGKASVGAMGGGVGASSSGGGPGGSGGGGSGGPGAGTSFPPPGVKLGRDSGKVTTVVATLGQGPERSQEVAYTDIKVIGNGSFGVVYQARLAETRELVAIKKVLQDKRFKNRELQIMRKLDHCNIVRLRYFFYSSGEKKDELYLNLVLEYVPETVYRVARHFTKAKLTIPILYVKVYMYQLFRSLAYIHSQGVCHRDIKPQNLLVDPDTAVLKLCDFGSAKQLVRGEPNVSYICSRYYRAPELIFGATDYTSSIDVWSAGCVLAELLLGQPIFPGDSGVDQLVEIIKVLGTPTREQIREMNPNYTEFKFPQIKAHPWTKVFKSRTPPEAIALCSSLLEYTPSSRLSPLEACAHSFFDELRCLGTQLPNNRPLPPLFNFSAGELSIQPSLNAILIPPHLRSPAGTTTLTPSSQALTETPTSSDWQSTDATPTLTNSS

| SMILES | pIC50 (GSK3α) | pIC50 (PBMCs; [1]) | pIC50 (PBMCs; [2]) |
| --- | --- | --- | --- |
| C[Si](C)(C)c1cc(NC(=O)Nc2ccc(Oc3ccnc(Nc4ccccc4)n3)c3ccccc23)n(-c2ccc(P(C)(C)=O)cc2)n1 [Example 5, 1-(1-(4-(Dimethylphosphoryl)phenyl)-3-(trimethylsilyl)-1H-pyrazol-5-yl)-3-(4-((2-(phenyl-amino)pyrimidin-4-yl)oxy)naphthalen-1-yl)urea] | 6.37 | 7.79 | 8.37 |
| CC(C)(C)c1cc(NC(=O)Nc2ccc(Oc3ccnc(Nc4ccccc4)n3)c3ccccc23)n(-c2ccc(CP(C)(C)=O)cc2)n1 [Example 6, 1-(3-(tert-Butyl)-1-(4-((dimethylphosphoryl)methyl)phenyl)-1H-pyrazol-5-yl)-3-(4-((2-(phenylamino)pyrimidin-4-yl)oxy)naphthalen-1-yl)urea] | 6.74 | 8.19 | 8.60 |
| CC(C)(C)c1cc(NC(=O)Nc2ccc(Oc3ccnc(Nc4ccc5[nH]ncc5c4)n3)c3ccccc23)n(-c2ccc(P(C)(C)=O)cc2)n1 [Example 7, 1-(4-((2-((1H-Indazol-5-yl)amino)pyrimidin-4-yl)oxy)naphthalen-1-yl)-3-(3-(tert-butyl)-1-(4-(dimethylphosphoryl)phenyl)-1H-pyrazol-5-yl)urea] | 6.31 | 8.17 | 8.60 |
| CC(C)(C)c1cc(NC(=O)Nc2ccc(Oc3ccnc(Nc4ccccc4)n3)c3ccccc23)n(-c2ccc(P3(=O)CCCC3)cc2)n1 [Example 8, 1-(3-(tert-Butyl)-1-(4-(1-oxidophospholan-1-yl)phenyl)-1H-pyrazol-5-yl)-3-(4-((2-(phenylamino)pyrimidin-4-yl)oxy)naphthalen-1-yl)urea] | 6.07 | 7.76 | 8.32 |
| CCOP(C)(=O)c1ccc(-n2nc(C(C)(C)C)cc2NC(=O)Nc2ccc(Oc3ccnc(Nc4ccccc4)n3)c3ccccc23)cc1 (centres unmarked) [Example 9, Ethyl (4-(3-(tert-butyl)-5-(3-(4-((2-(phenylamino)pyrimidin-4-yl)oxy)naphthalen-1-yl)-ureido)-1H-pyrazol-1-yl)phenyl)(methyl)phosphinate] | 5.84 | 7.62 | 8.21 |
| CC(C)(C)c1cc(NC(=O)Nc2ccc(Oc3ccnc(Nc4ccc5[nH]ncc5c4)n3)c3ccccc23)n(-c2cccc(P(C)(C)=O)c2)n1 [Example 10, 1-(4-((2-((1H-Indazol-5-yl)amino)pyrimidin-4-yl)oxy)naphthalen-1-yl)-3-(3-(tert-butyl)-1-(3-(dimethylphosphoryl)phenyl)-1H-pyrazol-5-yl)urea] | 6.16 | 7.86 | 8.40 |
| CC(C)(C)c1cc(NC(=O)Nc2ccc(Oc3ccnc(Nc4ccc5c(c4)NC(=O)C5)n3)c3ccccc23)n(-c2cccc(P(C)(C)=O)c2)n1 [Example 11] | 6.69 | 7.79 | 8.57 |
| CC(C)(C)c1cc(NC(=O)Nc2ccc(Oc3ccnc(Nc4ccc5onc(N)c5c4)n3)c3ccccc23)n(-c2cccc(P(C)(C)=O)c2)n1 [Example 12] | 7.14 | 8.07 | 8.74 |
| Cc1cc(Nc2nccc(Oc3ccc(NC(=O)Nc4cc(C(C)(C)C)nn4-c4cccc(P(C)(C)=O)c4)c4ccccc34)n2)cc2cn[nH]c12 [Example 13, 1-(3-(tert-Butyl)-1-(3-(dimethylphosphoryl)phenyl)-1H-pyrazol-5-yl)-3-(4-((2-((7-methyl-1H-indazol-5-yl)amino)pyrimidin-4-yl)oxy)naphthalen-1-yl)urea] | 6.68 | 8.47 | 8.77 |
| CC(C)(C)c1cc(NC(=O)Nc2ccc(Oc3ccnc(Nc4ccc5c(c4)NC(=O)C5)n3)c3ccccc23)n(-c2ccc(P(C)(C)=O)cc2)n1 [Example 14, 1-(3-(tert-Butyl)-1-(4-(dimethylphosphoryl)phenyl)-1H-pyrazol-5-yl)-3-(4-((2-((2-oxoindolin-6-yl)amino)pyrimidin-4-yl)oxy)naphthalen-1-yl)urea] | 6.53 | 7.88 | 8.40 |
| CC(C)(C)c1cc(NC(=O)Nc2ccc(Oc3ccnc(Nc4cccc(C(=O)NCCN5CCOCC5)c4)n3)c3ccccc23)n(-c2cccc(P(C)(C)=O)c2)n1 [Example 16, 3-((4-((4-(3-(3-(tert-Butyl)-1-(3-(dimethylphosphoryl)phenyl)-1H-pyrazol-5-yl)ureido)-naphthalen-1-yl)oxy)pyrimidin-2-yl)amino)-N-(2-morpholinoethyl)benzamide] | 7.14 | 8.08 | 8.37 |
| CC(C)(C)c1cc(NC(=O)Nc2ccc(Oc3ccnc(Nc4cccc(OCCN5CCOCC5)c4)n3)c3ccccc23)n(-c2ccc(P(C)(C)=O)cc2)n1 [Example 17, 1-(3-(tert-Butyl)-1-(4-(dimethylphosphoryl)phenyl)-1H-pyrazol-5-yl)-3-(4-((2-((3-(2-morpholinoethoxy)phenyl)amino)pyrimidin-4-yl)oxy)naphthalen-1-yl)urea] | 7.13 | 8.27 | 8.74 |
| CC(C)(C)c1cc(NC(=O)Nc2ccc(Oc3ccnc(Nc4ccc(SCCO)cc4)n3)c3ccccc23)n(-c2ccc(P(C)(C)=O)cc2)n1 [Example 18, 1-(3-(tert-Butyl)-1-(4-(dimethylphosphoryl)phenyl)-1H-pyrazol-5-yl)-3-(4-((2-((4-((2-hydroxyethyl)thio)phenyl)amino)pyrimidin-4-yl)oxy)naphthalen-1-yl)urea] | 6.77 | 8.14 | 8.54 |
| CC(C)(C)c1cc(NC(=O)Nc2ccc(Oc3ccnc(Nc4ccccc4)n3)c3ccccc23)n(-c2ccc(P(C)(=O)O)cc2)n1 [Example 19, (4-(3-(tert-Butyl)-5-(3-(4-((2-(phenylamino)pyrimidin-4-yl)oxy)naphthalen-1-yl)ureido)-1H-pyrazol-1-yl)phenyl)(methyl)phosphinic acid] | 7.12 | 6.39 |  |
| CC(C)(C)c1cc(NC(=O)Nc2ccc(Oc3ccnc(Nc4ccc5onc(N)c5c4)n3)c3ccccc23)n(-c2ccc(P(C)(C)=O)cc2)n1 [Example 20, 1-(4-((2-((3-Aminobenzo[d]isoxazol-5-yl)amino)pyrimidin-4-yl)oxy)naphthalen-1-yl)-3-(3-(tert-butyl)-1-(4-(dimethylphosphoryl)phenyl)-1H-pyrazol-5-yl)urea] | 7.17 | 8.05 |  |
| CC(C)(C)c1cc(NC(=O)Nc2ccc(Oc3ccnc(Nc4cccc(C(=O)NCCN5CCOCC5)c4)n3)c3ccccc23)n(-c2ccc(P(C)(C)=O)cc2)n1 [Example 24, 3-((4-((4-(3-(3-(tert-Butyl)-1-(4-(dimethylphosphoryl)phenyl)-1H-pyrazol-5-yl)ureido)-naphthalen-1-yl)oxy)pyrimidin-2-yl)amino)-N-(2-morpholinoethyl)benzamide] | 6.53 | 7.58 |  |
| CC(C)(C)c1cc(NC(=O)Nc2ccc(Oc3ccnc(Nc4ccc(P(C)(C)=O)cc4)n3)c3ccccc23)n(-c2ccc(P(C)(C)=O)cc2)n1 [Example 25, 1-(3-(tert-Butyl)-1-(4-(dimethylphosphoryl)phenyl)-1H-pyrazol-5-yl)-3-(4-((2-((4-(dimethyl-phosphoryl)phenyl)amino)pyrimidin-4-yl)oxy)naphthalen-1-yl)urea] | 6.79 | 7.84 |  |

Source: patent publication US9796742B2, “Kinase inhibitors” (Respivert Limited, priority 2012, dated 2017)
